Laboratory results: article doi:10.1101/2025.03.14.643404, “A Bivalent Molecular Glue Linking Lysine Acetyltransferases to Oncogene-induced Cell Death” (bioRxiv, 2025)

What was measured:
[1] = molecular target: T1, p300 (Homo sapiens, UniProt Q09472); assay: Global proteome profiling in SUDHL5, p300 abundance; format: cell-based; details: SUDHL5, 10 nM, 24 hours
T1 construct: endogenous in cells; host or cells: SUDHL5
Description: (§1) SUDHL5 cells (6M cells in 6 mL RPMI-1640 media supplemented with 10% FBS and 1x pen-strep) were treated with 0.1% DMSO, 10 nM TCIP3, 10 nM Neg1, 10 nM Neg2, or 250 nM dCBP1 (1000x stocks in DMSO for final 0.1% DMSO concentration) in 3 biologically independent replicates. The cells were washed twice with TBS (50 mM Tris, pH 8.5, and 150 mM NaCl) and then stored at −80 °C until use.
(§2) Lysis was performed by first thermally denaturing the samples in residual wash buffer for 5 min at 95 °C. Fresh Lysis Buffer (8 M urea, 150 mM NaCl, and 100 mM HEPES, pH 8.0, in MS-grade water) was then added, and the lysates were homogenized using needle ultrasonication and then normalized to 30 μg of 2 mg/mL by diluting with Lysis Buffer via a Bradford protein concentration assay (Bio-Rad 5000006) in technical duplicates. […]
(§3) Samples were then desalted using SOLAμ SPE HRP Peptide Desalting columns (Thermo 60209–001) with a Positive Pressure Manifold and all MS-grade reagents. […] The samples were then reconstituted in 0.1% FA in water and then analyzed by LC-MS/MS (see below).
(§4) The reconstituted desalted peptides were then analyzed using a nanoElute 2 UHPLC (Bruker Daltonics, Bremen, Germany) coupled to a timsTOF HT (Bruker Daltonics, Bremen, Germany) via a CaptiveSpray nano-electrospray source. […]

[2] = molecular target: T2, CBP (Homo sapiens, UniProt Q92793); assay: Global proteome profiling in SUDHL5, CBP abundance; format: cell-based; details: SUDHL5, 10 nM, 24 hours
T2 construct: endogenous in cells; host or cells: SUDHL5
T2 sequence (Q92793 whole entry): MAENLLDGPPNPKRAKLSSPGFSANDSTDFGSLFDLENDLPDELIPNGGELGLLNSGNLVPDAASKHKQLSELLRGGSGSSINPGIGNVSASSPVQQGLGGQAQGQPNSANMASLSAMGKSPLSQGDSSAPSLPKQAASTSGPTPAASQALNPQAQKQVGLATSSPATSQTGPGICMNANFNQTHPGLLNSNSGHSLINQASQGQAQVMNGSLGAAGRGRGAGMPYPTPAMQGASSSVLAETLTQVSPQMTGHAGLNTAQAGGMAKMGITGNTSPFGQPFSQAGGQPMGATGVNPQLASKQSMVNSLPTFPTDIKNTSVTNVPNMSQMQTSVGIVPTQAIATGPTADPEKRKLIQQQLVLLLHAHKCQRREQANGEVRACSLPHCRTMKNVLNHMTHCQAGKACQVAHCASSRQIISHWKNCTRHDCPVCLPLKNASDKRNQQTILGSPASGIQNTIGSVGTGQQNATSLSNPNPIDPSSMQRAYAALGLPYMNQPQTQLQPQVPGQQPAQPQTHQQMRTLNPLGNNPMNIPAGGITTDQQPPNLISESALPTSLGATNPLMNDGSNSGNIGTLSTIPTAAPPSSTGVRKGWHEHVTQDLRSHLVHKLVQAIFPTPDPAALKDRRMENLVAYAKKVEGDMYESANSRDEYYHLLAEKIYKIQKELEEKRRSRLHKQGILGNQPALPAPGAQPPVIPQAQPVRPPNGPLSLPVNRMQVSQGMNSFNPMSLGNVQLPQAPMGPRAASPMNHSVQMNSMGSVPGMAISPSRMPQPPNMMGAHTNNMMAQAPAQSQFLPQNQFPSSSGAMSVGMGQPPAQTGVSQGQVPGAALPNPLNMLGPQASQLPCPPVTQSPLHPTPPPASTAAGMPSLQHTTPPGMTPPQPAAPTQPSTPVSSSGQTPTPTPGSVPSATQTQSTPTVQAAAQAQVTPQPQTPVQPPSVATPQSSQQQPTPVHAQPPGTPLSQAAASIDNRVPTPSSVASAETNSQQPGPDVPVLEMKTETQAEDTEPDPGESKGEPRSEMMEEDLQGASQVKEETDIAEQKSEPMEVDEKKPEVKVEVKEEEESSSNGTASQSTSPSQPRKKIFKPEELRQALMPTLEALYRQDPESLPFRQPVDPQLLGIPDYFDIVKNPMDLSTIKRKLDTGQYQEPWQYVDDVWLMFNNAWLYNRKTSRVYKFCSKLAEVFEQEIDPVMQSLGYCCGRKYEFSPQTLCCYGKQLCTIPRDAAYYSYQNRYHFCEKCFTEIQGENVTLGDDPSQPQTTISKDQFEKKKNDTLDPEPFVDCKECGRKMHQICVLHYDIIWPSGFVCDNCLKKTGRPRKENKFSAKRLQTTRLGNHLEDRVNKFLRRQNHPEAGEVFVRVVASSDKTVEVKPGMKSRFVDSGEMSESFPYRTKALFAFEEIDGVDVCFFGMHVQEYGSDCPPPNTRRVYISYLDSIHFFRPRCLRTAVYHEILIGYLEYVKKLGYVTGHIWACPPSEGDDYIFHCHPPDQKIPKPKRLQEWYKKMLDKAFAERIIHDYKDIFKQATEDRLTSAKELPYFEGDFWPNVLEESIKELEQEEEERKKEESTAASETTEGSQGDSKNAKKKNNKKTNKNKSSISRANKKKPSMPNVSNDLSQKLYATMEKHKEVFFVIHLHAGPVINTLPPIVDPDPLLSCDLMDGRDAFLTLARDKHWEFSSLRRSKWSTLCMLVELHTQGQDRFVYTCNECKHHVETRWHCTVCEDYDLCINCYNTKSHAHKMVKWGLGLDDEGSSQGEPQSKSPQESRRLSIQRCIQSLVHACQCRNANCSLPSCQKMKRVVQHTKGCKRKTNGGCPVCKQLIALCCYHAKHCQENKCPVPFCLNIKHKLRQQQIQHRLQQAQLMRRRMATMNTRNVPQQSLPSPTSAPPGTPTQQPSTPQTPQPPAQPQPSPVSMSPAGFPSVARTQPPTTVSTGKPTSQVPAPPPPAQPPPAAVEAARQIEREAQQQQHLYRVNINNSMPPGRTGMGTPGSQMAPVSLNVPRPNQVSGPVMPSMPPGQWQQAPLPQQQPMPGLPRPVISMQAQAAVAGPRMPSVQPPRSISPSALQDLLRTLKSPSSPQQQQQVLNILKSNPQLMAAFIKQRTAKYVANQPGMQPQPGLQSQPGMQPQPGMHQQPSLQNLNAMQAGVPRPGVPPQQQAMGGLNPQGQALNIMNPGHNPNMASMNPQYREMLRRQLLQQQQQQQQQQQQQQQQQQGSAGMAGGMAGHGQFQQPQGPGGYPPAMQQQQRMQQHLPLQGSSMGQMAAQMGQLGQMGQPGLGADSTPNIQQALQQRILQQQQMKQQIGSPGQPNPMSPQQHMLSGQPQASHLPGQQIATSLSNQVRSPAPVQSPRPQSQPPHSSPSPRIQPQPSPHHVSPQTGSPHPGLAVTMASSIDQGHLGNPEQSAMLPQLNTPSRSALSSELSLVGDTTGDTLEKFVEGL
Description: as §1, §2, §3, §4

[3] = test system: CBP^BD-BCL6^BTB; assay: TR-FRET ternary assay CBPBD-BCL6BTB; format: binding, human
Description: 10 μL reactions containing 10 nM 6x-His- p300^BD or 6x-His-CBP^BD, 200 nM BiotinylatedAvi-BCL6^BTB, 20 nM streptavidin-FITC (SA1001, Thermo), and 1:400 anti-6x-His-terbium (PerkinElmer 61HI2TLF) in buffer containing 20 mM HEPES pH 7.5, 150 mM NaCl, 0.1% BSA, 0.1% NP-40, and 1 mM TCEP were plated in low-volume 384 well plates. Drugs were digitally dispensed (Tecan D300e) into protein-containing wells, and the plate was allowed to incubate in the dark for 1 hour at room temperature. Emission at 490 nm (terbium) and 520 nm (FITC) was measured on a PHERAstar FS plate reader (BMG Labtech) upon excitation with 337 nm. The ratio of signal at 520 nm to 490 nm was calculated and normalized to DMSO-treated protein.

T1 sequence (Q09472 2-2414 limits assumed, other chains not shown): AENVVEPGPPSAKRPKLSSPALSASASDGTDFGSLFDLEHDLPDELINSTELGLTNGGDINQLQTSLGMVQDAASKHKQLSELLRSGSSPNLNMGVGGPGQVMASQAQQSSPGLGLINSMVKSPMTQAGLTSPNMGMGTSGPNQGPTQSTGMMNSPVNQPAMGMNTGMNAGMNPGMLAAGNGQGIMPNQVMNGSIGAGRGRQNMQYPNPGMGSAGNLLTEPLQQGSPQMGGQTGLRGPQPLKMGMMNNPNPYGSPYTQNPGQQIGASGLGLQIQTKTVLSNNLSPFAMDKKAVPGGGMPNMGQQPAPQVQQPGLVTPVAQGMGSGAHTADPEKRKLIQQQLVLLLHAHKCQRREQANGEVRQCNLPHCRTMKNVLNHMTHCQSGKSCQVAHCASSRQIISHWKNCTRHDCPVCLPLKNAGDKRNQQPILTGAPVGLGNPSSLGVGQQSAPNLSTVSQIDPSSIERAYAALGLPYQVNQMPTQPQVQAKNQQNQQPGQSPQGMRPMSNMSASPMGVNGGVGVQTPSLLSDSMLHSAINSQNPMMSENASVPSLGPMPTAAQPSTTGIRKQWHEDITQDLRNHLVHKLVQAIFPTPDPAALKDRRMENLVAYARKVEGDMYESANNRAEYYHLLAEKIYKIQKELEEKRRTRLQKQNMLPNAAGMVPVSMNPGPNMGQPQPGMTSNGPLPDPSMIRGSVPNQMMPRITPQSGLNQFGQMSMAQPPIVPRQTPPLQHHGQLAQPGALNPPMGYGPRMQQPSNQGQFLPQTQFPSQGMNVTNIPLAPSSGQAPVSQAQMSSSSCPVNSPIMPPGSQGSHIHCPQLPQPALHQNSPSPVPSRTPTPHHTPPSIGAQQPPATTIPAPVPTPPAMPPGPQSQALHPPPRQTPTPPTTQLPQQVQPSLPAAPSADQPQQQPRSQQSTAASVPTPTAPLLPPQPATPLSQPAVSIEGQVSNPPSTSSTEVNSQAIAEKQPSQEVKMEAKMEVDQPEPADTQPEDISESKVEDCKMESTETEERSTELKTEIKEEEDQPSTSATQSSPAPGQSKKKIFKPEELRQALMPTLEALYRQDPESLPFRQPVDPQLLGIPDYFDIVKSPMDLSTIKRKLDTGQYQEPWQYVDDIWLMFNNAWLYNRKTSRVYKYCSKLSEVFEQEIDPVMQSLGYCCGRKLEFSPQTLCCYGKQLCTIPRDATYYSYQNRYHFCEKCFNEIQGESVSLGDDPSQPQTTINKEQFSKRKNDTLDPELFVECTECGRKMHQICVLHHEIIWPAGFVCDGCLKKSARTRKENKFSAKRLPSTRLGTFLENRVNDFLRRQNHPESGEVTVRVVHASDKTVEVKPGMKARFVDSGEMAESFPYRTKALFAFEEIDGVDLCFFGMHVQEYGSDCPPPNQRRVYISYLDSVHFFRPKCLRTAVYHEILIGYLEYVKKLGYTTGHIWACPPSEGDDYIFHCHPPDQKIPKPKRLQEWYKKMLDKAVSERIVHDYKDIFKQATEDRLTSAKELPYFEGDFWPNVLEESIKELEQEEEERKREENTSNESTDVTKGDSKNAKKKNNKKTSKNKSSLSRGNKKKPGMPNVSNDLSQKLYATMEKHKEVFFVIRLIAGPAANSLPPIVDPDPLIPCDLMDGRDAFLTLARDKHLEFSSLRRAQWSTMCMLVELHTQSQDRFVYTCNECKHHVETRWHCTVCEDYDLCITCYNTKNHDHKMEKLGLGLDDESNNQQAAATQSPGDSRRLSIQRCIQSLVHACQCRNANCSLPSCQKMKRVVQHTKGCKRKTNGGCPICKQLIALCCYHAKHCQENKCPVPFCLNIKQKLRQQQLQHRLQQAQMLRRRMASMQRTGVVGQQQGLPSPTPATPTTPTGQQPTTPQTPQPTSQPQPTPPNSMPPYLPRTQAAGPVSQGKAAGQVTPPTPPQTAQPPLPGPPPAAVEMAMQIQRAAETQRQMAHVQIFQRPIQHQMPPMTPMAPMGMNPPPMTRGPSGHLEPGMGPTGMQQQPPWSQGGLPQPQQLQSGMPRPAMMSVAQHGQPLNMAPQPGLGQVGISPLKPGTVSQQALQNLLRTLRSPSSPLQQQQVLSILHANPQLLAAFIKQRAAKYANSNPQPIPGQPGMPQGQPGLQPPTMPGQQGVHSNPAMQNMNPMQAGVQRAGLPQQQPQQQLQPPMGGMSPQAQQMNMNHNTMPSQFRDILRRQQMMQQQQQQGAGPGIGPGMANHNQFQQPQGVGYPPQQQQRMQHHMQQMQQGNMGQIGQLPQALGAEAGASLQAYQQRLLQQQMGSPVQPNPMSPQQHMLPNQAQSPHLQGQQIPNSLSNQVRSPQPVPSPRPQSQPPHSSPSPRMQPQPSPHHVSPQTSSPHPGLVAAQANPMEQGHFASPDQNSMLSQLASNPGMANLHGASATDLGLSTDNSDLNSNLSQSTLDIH

p300 protein abundance log2(fold change) [1]: 0.37 | CBP protein abundance log2(fold change) [2]: 0.58
Structure (SMILES): CNC(=O)COc1cc2cc(Nc3nc(N4CCC(C(=O)N5CCN(CCC(=O)N6CCC(n7nc(N8CCCc9cc(-c%10cnn(C)c%10)c(C(F)F)cc98)c8c7CCN(C(=O)NC)C8)CC6)CC5)CC4)ncc3Cl)cc(OC)c2n(C)c1=O [TCIP3]
TR-FRET signal AUC, times higher than NEG1 [3]: 16 times | TR-FRET signal AUC, times higher than NEG2 [3]: 25 times
